For 38 compounds, Ki results are on record in patent publication EP1673354B1, “ARYLINDENOPYRIDINES AND ARYLINDENOPYRIMIDINES AND THEIR USE AS ADENOSINE A2A RECEPTOR ANTAGONISTS” (Ortho-McNeil Pharmaceutical, Inc., priority 2003, dated 2005).

Read-outs that look alike come from different tables or passages of the source.

Experiment [1] deals with T1, human adenosine A2a receptors (Homo sapiens, UniProt P29274).
T1 construct: expressed in transfected cells; host or cells: CHO-K1 cells with cAMP-inducible beta-galactosidase reporter gene
T1 sequence (P29274 whole entry): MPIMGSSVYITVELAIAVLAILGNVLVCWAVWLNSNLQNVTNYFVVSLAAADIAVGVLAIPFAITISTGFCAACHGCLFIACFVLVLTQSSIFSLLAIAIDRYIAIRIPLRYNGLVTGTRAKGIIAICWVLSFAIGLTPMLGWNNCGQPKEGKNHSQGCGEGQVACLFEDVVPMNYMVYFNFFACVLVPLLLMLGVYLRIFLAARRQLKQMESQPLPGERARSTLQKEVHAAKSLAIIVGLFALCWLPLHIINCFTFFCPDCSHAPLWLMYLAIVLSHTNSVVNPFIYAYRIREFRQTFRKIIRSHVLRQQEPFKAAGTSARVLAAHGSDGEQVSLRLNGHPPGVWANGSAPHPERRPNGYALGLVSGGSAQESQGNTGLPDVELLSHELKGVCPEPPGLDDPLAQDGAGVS
Description: Adenosine A2a receptor functional assay, antagonist mode (cAMP-inducible beta-galactosidase reporter, 50 nM NECA). It is filed as cell-based. The settings on record: CHO-K1 cells, read-out: Ki (nM) A2a antagonist function. The method, then:
Adenosine A2a Receptor Functional Assay
CHO-K1 cells overexpressing human adenosine A2a receptors and containing cAMP-inducible beta-galactosidase reporter gene were seeded at 40-50K/well into 96-well tissue culture plates and cultured for two days. On assay day, cells were washed once with 200 µL assay medium (F-12 nutrient mixture/0.1 % BSA). For agonist assay, adenosine A2a receptor agonist NECA was subsequently added and cell incubated at 37°C, 5% CO2 for 5 hrs before stopping reaction. In the case of antagonist assay, cells were incubated with antagonists for 5 minutes at R.T. followed by addition of 50 nM NECA. Cells were then incubated at 37°C, 5% CO2 for 5 hrs before stopping experiments by washing cells with PBS twice. 50 µL 1X lysis buffer (Promega, 5X stock solution, needs to be diluted to 1X before use) was added to each well and plates frozen at -20°C. For β-galactosidase enzyme colorimetric assay, plates were thawed out at room temperature and 50 µL 2X assay buffer (Promega) added to each well. Color was allowed to develop at 37°C for 1 h or until reasonable signal appeared. Reaction was then stopped with 150 µL 1 M sodium carbonate. […] Data was analyzed in Microsoft Excel and GraphPad Prism programs.

For a further experiment, the target named is T2, Adenosine A1 receptor (Homo sapiens, UniProt P30542).
T2 sequence (P30542 1-326): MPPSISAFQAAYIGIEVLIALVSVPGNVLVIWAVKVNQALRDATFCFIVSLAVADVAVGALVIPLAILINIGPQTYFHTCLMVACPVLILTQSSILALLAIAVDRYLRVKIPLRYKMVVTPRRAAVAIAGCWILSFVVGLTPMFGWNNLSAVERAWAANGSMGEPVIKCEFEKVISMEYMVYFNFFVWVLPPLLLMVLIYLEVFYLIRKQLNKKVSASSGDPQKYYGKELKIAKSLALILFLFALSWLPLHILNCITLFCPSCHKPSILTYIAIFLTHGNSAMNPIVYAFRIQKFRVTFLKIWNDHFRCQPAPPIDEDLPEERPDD
Description: A1 antagonist function (no method described). It counts as cell-based.

In experiment [2] the target is T3, human A2a adenosine receptor (Homo sapiens, UniProt P29274).
T3 construct: purchased PerkinElmer RB-HA2a; host or cells: HEK293 cell plasma membrane
T3 sequence (P29274 whole entry): as the sequence (P29274 whole entry) above
Description: Ligand binding assay for adenosine A2a receptor ([3H]CGS21680, HEK293 plasma membrane). As for the experimental part:
Ligand Binding Assay for Adenosine A2a Receptor
Ligand binding assay of adenosine A2a receptor was performed using plasma membrane of HEK293 cells containing human A2a adenosine receptor (PerkinElmer, RB-HA2a) and radioligand [^3H]CGS21680 (PerkinElmer, NET1021). Assay was set up in 96-well polypropylene plate in total volume of 200 µl by sequentially adding 20 µL1:20 diluted membrane, 130 µLassay buffer (50 mM Tris·HCl, pH7.4 10 mM MgCl2, 1 mM EDTA) containing [^3H] […] Nonspecific binding was determined by […] NECA. Reaction was carried out at room temperature for 2 hours before filtering through 96-well GF/C filter plate pre-soaked in 50 mM Tris·HCl, pH7.4 containing 0.3% polyethylenimine. Plates were then washed 5 times with cold 50 mM Tris·HCl, pH7.4, dried and sealed at the bottom. Microscintillation fluid 30 µl was added to each well and the top sealed. Plates were counted on Packard Topcount for [^3H]. Data was analyzed in Microsoft Excel and GraphPad Prism programs.

[3] abbreviates: radioligand [3H]CGS21680, HEK293 membranes, room temperature 2 hours; read-out: Ki (nM) A2a binding.

For `N#Cc1c(N)nc(-c2ccoc2)c2c1-c1ccccc1C2=O` [Compound 66], the Ki (usually the equilibrium dissociation constant of an inhibitor or competing ligand from its target) worked out at 0.069 nM in experiment [1], 15.6 nM at Adenosine A1 receptor and 4.21 nM in experiment [2] (setting [3]).
Taken in the same sequence, the figures for `N#Cc1c(N)nc(-c2cccs2)c2c1-c1ccccc1C2=O` [Compound 72] were 2.54 nM, 6.24 nM and 12.6 nM.
In the same order, the values of `Nc1nc(-c2ccco2)c2c(n1)-c1cc(Br)ccc1C2=O` [Compound 35] are 0.265 nM, 7.09 nM and 3.49 nM.
With `C[C@H](O)[C@@H](O)c1cccc2c1C(=O)c1c(-c3ccccc3)nc(N)nc1-2` [Compound 32], the inhibitory constant (Ki) in experiment [1] was 0.634 nM; on Adenosine A1 receptor it was 9.89 nM; in experiment [2] (read-out: Ki (nM) A2a binding; radioligand [3H]CGS21680, HEK293 membranes, room temperature 2 hours), 3.55 nM.
On to `N#Cc1c(N)nc(-c2ccccc2)c2c1-c1ccccc1C2=O` [Compound 64], for which the Ki is 0.138 nM in experiment [1], 4.61 nM on Adenosine A1 receptor and 13.1 nM in experiment [2] (setting [3]).
Taken in the same sequence, the figures for `CNc1nc(-c2ccccc2)c2c(n1)-c1ccccc1C2=O` [Compound 24] were above 3000 nM, 5.99 nM and 30.3 nM.
Taken in the same sequence, the figures for `Nc1nc(-c2ccco2)c2c(n1)-c1ccc(C(F)(F)F)cc1C2=O` [Compound 22] were 0.055 nM, 2.75 nM and 14.2 nM.
In the same order, the values of `Nc1nc(-c2cccnc2)c2c(n1)-c1ccccc1C2=O` [Compound 5] are 9.64 nM, 27.1 nM and 5.36 nM.
With `Nc1nc(-c2cccc([N+](=O)[O-])c2)c2c(n1)-c1ccccc1C2=O` [Compound 9], the inhibition constant Ki came to 4.85 nM in experiment [1], 7.69 nM on Adenosine A1 receptor and 20.8 nM in experiment [2] (setting [3]).
Taken in the same sequence, the figures for `CSc1nc(N)nc2c1C(=O)c1c(N)cccc1-2` [Compound 18] were above 3000 nM, 189 nM and 318 nM.
Consider `Nc1nc(-c2ccsc2)c2c(n1)-c1ccccc1C2=O` [Compound 15], for which the figures for the Ki (in experiment [1]; at Adenosine A1 receptor; in experiment [2] (setting [3])) were 0.258 nM, 3.46 nM and 3.23 nM, respectively.
With `Nc1nc(-c2ccc(Cl)cc2)c2c(n1)-c1ccccc1C2=O` [Compound 8], the Ki came to 5.5 nM in experiment [1], 11.6 nM at Adenosine A1 receptor and 58.4 nM in experiment [2] (setting [3]).
For the compound `Nc1nc(-c2ccccc2)c2c(n1)-c1cccc(CN3CCCCC3)c1C2=O` [Compound 53], the inhibitory constant (Ki) was found to be 14.2 nM in experiment [1], 40.8 nM on Adenosine A1 receptor and 64.2 nM in experiment [2] (setting [3]).
In the same order, the values of `Nc1nc(-c2ccco2)c2c(n1)-c1cccc(O)c1C2=O` [Compound 17] are 67.1 nM, 111 nM and 6.3 nM.
On to `CN1CCCC1COC(=O)c1c(N)nc(-c2ccccc2)c2c1-c1ccccc1C2=O` (stereo not drawn) [Compound 90], for which the inhibition constant Ki in experiment [1] was 57.7 nM; on Adenosine A1 receptor, above 300 nM; in experiment [2] (setting [3]) it was 202 nM.
`N#Cc1c(N)nc(C2CCCCC2)c2c1-c1ccccc1C2=O` [Compound 95]: the Ki in experiment [1] is above 1000 nM; on Adenosine A1 receptor it was 110 nM; in experiment [2] (setting [3]), 338 nM.
Taken in the same sequence, the figures for `CC(COC(=O)c1c(N)nc(-c2ccccc2)c2c1-c1ccccc1C2=O)CN(C)C` (stereo not drawn) [Compound 92] were 13.9 nM, 32.9 nM and 38.8 nM.
Take `N#Cc1c(N)nc(-c2ccco2)c2c1-c1ccccc1C2O` (stereo not drawn) [Compound 89]: the Ki was 1.12 nM in experiment [1], 11.2 nM at Adenosine A1 receptor and 5.85 nM in experiment [2] (setting [3]).
Taken in the same sequence, the figures for `CN(C)CCNC(=O)c1c(N)nc(-c2ccco2)c2c1-c1ccccc1C2=O` [Compound 76] were 22.1 nM, above 500 nM and 33 nM.
In the same order, the values of `N#Cc1c(N)nc(-c2ccco2)c2c1-c1c(F)c(F)c(F)c(F)c1C2=O` [Compound 79] are 12.5 nM, above 1000 nM and 8.03 nM.
Turning to `Nc1nc(-c2ccoc2)c2c(n1)-c1ccccc1C2=O` [Compound 44], the Ki in experiment [1] was determined as 0.208 nM; at Adenosine A1 receptor, 7.4 nM; in experiment [2] (setting [3]), 3.93 nM.
Taken in the same sequence, the figures for `Nc1nc(-c2ccccc2)c2c(c1C(=O)OCCN1CCCC1)-c1ccccc1C2=O` [Compound 88] were 48.9 nM, above 300 nM and 130 nM.
Consider `CN1CCN(CCCOC(=O)c2c(N)nc(-c3ccccc3)c3c2-c2ccccc2C3=O)CC1` [Compound 83], for which the Ki in experiment [1] turned out to be 74.9 nM; on Adenosine A1 receptor, 117 nM; in experiment [2] (setting [3]), 200 nM.
For `Cc1ccc(-c2nc(N)nc3c2C(=O)c2ccccc2-3)o1` [Compound 45, 2-amino-4-(5-methyl-furan-2-yl)-indeno[1,2-d]pyrimidin-5-one], the inhibition constant Ki stood at 0.005 nM in experiment [1], 0.016 nM on Adenosine A1 receptor and 4.01 nM in experiment [2] (setting [3]).
Taken in the same sequence, the figures for `CCOC(=O)C1CCCN(Cc2cccc3c2C(=O)c2c(-c4ccccc4)nc(N)nc2-3)C1` (stereo not drawn) [Compound 55] were 5.84 nM, 19.9 nM and 32.8 nM.
Take `COc1cccc(-c2nc(N)nc3c2C(=O)c2ccccc2-3)c1` [Compound 11]: the Ki was 1.63 nM in experiment [1], 2.47 nM on Adenosine A1 receptor and 8.85 nM in experiment [2] (setting [3]).
Taken in the same sequence, the figures for `Nc1nc(Nc2ccccc2)c2c(n1)-c1ccccc1C2=O` [Compound 43] were 3.68 nM, 2.34 nM and 39.9 nM.
Taken in the same sequence, the figures for `N#Cc1c(N)nc(-c2ccc(F)cc2)c2c1-c1ccccc1C2=O` [Compound 71] were 3.39 nM, 2.42 nM and 17.2 nM.
With `Nc1nc(-c2cccc(O)c2)c2c(n1)-c1ccccc1C2=O` [Compound 13], the Ki in experiment [1] was 35.6 nM; on Adenosine A1 receptor, 10.3 nM; in experiment [2] (setting [3]) it was 5.16 nM.
Regarding `Nc1nc(-c2ccc(F)cc2)c2c(n1)-c1ccccc1C2=O` [Compound 38], the inhibition constant Ki came to 0.956 nM in experiment [1], 9.44 nM at Adenosine A1 receptor and 2.34 nM in experiment [2] (setting [3]).
Consider `CC(CN(C)C)OC(=O)c1c(N)nc(-c2ccco2)c2c1-c1ccccc1C2=O` (stereo not drawn) [Compound 96], for which the inhibition constant Ki worked out at 10.1 nM in experiment [1], 52.5 nM at Adenosine A1 receptor and 48.5 nM in experiment [2] (setting [3]).
Consider `CN(C)C=Nc1nc(-c2cccc(F)c2)c2c(n1)-c1ccccc1C2=O` [Compound 19], for which the Ki in experiment [1] was 20.9 nM; on Adenosine A1 receptor it was 21.6 nM; in experiment [2] (setting [3]), 111 nM.
Taken in the same sequence, the figures for `Nc1nc(-c2ccccc2)c2c(c1C(=O)OCCN1CCOCC1)-c1ccccc1C2=O` [Compound 91] were 22.1 nM, 14.7 nM and 208 nM.
For `COc1ccc(-c2nc(N)nc3c2Cc2ccccc2-3)cc1` [Compound 1], the inhibitory constant (Ki) in experiment [1] was determined as 234 nM; at Adenosine A1 receptor, 53 nM; in experiment [2] (setting [3]), 44.6 nM.
`COC(=O)C1CCCCN1Cc1cccc2c1C(=O)c1c(-c3ccccc3)nc(N)nc1-2` (stereo not drawn) [Compound 54]: the Ki in experiment [1] came to 3.19 nM; at Adenosine A1 receptor, 19.6 nM; in experiment [2] (setting [3]), 40.8 nM.
Taken in the same sequence, the figures for `COc1cccc(-c2nc(N)c(C#N)c3c2C(=O)c2ccccc2-3)c1` [Compound 74] were 5.7 nM, 7.28 nM and 14.7 nM.
`CN(C)CCOC(=O)c1c(N)nc(-c2ccsc2)c2c1-c1ccccc1C2=O` [Compound 93]: the results for the inhibition constant Ki (in experiment [1]; at Adenosine A1 receptor; in experiment [2] (setting [3])) were 23.6 nM, 104 nM and 64.1 nM, respectively.
Regarding `CN1CCCC1COC(=O)c1c(N)nc(-c2ccco2)c2c1-c1ccccc1C2=O` (stereo not drawn) [Compound 82, 9H-indeno[2,1-c]pyridine-4-carboxylic acid, 3-amino-1-furan-2-yl-9-oxo-, 1-methyl-pyrrolidin-2-ylmethyl ester], the inhibition constant (Ki) turned out to be 1.36 nM in experiment [1], 29.6 nM at Adenosine A1 receptor and 20.2 nM in experiment [2] (setting [3]).
